Positions count from the first letter of the chain named. Several values for one entry are separate records, joined by “and”; a condition that tells them apart may be missing. Equal values may be shown once. Entries after “also recorded” stand apart in the source; their conditions may differ.
Key:
[1] = biological target: T1, α1B ADR mutant (Mesocricetus auratus, UniProt P18841, A293L/K290H/R288K); test: Ligand binding on membranes of RAT-1 fibroblast cell lines expressing the α1B ADR mutant; parameters: species or system hamster; conditions: competition with 100 pM [125I] HEAT; membranes, two clones; read-out: NE Ki
T1 construct: expressed in transfected cells; host or cells: RAT-1 fibroblasts (vector pZIP-NeoSV(X)1), focus-derived, G418-selected lines
T1 sequence (P18841 1-515 R288K/K290H/A293L): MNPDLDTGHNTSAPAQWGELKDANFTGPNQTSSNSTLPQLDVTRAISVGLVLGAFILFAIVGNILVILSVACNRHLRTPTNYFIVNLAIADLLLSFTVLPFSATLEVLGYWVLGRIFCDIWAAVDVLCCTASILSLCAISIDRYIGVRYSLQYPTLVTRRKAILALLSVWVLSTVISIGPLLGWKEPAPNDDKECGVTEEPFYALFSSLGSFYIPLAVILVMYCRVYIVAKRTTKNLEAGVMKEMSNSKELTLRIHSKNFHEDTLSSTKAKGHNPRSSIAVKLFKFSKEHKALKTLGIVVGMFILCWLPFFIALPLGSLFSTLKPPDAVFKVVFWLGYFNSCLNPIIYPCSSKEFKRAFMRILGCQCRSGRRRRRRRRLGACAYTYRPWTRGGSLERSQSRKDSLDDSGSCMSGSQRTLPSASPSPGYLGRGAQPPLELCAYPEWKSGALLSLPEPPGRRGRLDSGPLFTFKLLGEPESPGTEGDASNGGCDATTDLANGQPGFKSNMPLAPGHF
Procedure: (§1) In Table 3, RAT-1 fibroblast cell lines transfected with expression vector alone or derived from transformed foci (α1B ADR or α1B ADR mutant) were selected with G418 (300 μg/ml). Ligand binding was performed on membranes prepared from two clones of each in accordance with known techniques (S. Cotecchia et al., Life Sci. 37, 2389 (1986)). For saturation binding analysis, [^125 ] HEAT concentrations ranged from 10 to 500 pM, nonspecific binding was determined using 1 μM prazosin; in competition experiments, the radioligand concentration was 100 pM. Ligand binding parameters were determined using computerized iterative nonlinear regression analysis (P. Munson, Methods in Enzymol. 92, 5432 (1983)). For assessment of receptor coupling to PI hydrolysis, cells were plated in 30 mm dishes, and labeled overnight with 3 μCi/ml of myo-[2-^3 II(N)]-inositol (1Ci=37 GBq; NEN Research Products) in DMEM containing 3.3% FBS in accordance with known techniques (S. Cotecchia et al., Proc. Natl. Acad. Sci. USA 87, 2896 (1990)). After 40 minute stimulation of cells with 10 μM norepinephrine (NE), inositol phosphates were extracted, and separated on AG 1-X8 anion exchange columns (BioRad Labs) in accordance with known techniques (S. Cotecchia et al., Proc. Natl. Acad. Sci. USA 87, 2896 (1990)). Total inositol phosphates were eluted with 1M ammonium formate/0.1M formic acid. Rmax indicates the percentage increase of total labeled inositol phosphates over basal levels following NE stimulation.

[2] = biological target: T2, α1B ADR (Mesocricetus auratus, UniProt P18841); test: NE stimulated PI hydrolysis in RAT-1 cell lines expressing the α1B ADR; format: cell-based, hamster
T2 construct: expressed in transfected cells; host or cells: RAT-1 fibroblasts (vector pZIP-NeoSV(X)1), focus-derived, G418-selected lines
T2 sequence (P18841 1-515): T1 sequence (P18841 1-515 R288K/K290H/A293L) with K288R, H290K, L293A
Procedure: as §1, with “Rmax indicates the percentage increase of total labeled inositol phosphates over basal levels following NE stimulation.” left out

[3] = biological target: T1, α1B ADR mutant; test: NE stimulated PI hydrolysis in RAT-1 cell lines expressing the α1B ADR mutant; format: cell-based, hamster
Procedure: as §1, with “Rmax indicates the percentage increase of total labeled inositol phosphates over basal levels following NE stimulation.” left out

[4] = test system: RAT-1 fibroblast cell line derived from a single transformed focus expressing the α1B -ADR; test: Morphology of focus-derived RAT-1 fibroblast cell line expressing the α1B-ADR; format: cell-based; conditions: 10 μM NE, 36 hours, 5% FBS
[5] = test system: α1B -ADR; conditions: NE alone, serum free medium; data not shown
[6] = 10 μM NE, 40 minute, increase of total labeled inositol phosphates over basal, two clones

In the case of `NC[C@H](O)c1ccc(O)c(O)c1` [NE, norepinephrine], the Ki [1] is reported as 42 nM and 47 nM, the “NE Stimulated PI Hydrolysis Rmax” value [2, 6] is reported as 758 % increase and 410 % increase and the “increase in total inositol phosphates following NE stimulation” value ([2]; focus-derived fibroblasts expressing α1B-ADR) is reported as 400 to 800%. For the same molecule, the “NE Stimulated PI Hydrolysis Rmax” value [3, 6] was 861 % increase and 954 % increase, the “increase in inositol phosphates induced by NE” value ([3]; cell lines expressing the α1B-ADR mutant) was 900 to 1000% and the “cellular morphology / phenotype in the presence of agonist” value [4] was “reverted to the transformed phenotype; also recorded: agonist-dependent alteration in cellular morphology with a loss in cellular orientation and decreased adhesiveness”. The “increase in DNA synthetic activity” value [5] was 11 fold.

From patent US5573908A, “Adrenergic receptor as a proto-oncogene” (Duke University, priority 1993, dated 1996)
